In patent publication US20100305213A1, “TREATMENT OF HEART DISEASE USING BETA-BLOCKERS” (Bayer Animal Health GmbH, priority 2007, published 2010):
Where a name gives a salt, the structure may show the parent alone.

Legend:
[1] = system: transient outward K+ current (Ito); experiment: Transient outward K+ current recordings in isolated ventricular myocytes of treated dogs; assay type: in vivo, dog
Description: (§1) After altogether 5 weeks of treatment the dogs were anaesthetized according to standard veterinary procedures and ex vivo ventricular myocytes were directly isolated from the mid-lateral left ventricular free wall using an isolation procedure described by Kubalova et al., which results in isolation of myocytes from the midmyocardial region. Afterwards the animals were humanely euthanized. Recordings of single cell action potentials and K+ currents were made. See Kubalova et al., Abnormal intrastore calcium signaling in chronic heart failure, Proc Nat Acad Sci 2005; 102: 14104-14109. There are two K+ currents which are expected to modulate the resting membrane potential and the action potential duration, and are known to be altered during heart failure, the inward and the outward K+ currents. The transient outward K+ current, (Ito) was recorded in all four groups and data was recorded and analyzed.

[2] = system: isolated ventricular myocytes; experiment: Action potentials in ventricular myocytes isolated ex vivo after 5 weeks of treatment (perforated whole cell patch clamp); design: species or system dog; conditions: for APD50 compared to the placebo-treated heart failure group / APD90 compared to normal controls / heart failure induced prolongation of the APD90: 0.5 and 1 Hz
Description: After altogether 5 weeks of treatment the dogs were anaesthetized according to standard veterinary procedures and ex vivo ventricular myocytes were directly isolated from the mid-lateral left ventricular free wall using an isolation procedure described by Kubalova et al., which results in isolation of myocytes from the midmyocardial region. Afterwards the animals were humanely euthanized. Recordings of single cell action potentials and K+ currents were made. See Kubalova et al., Abnormal intrastore calcium signaling in chronic heart failure, Proc Nat Acad Sci 2005; 102: 14104-14109. For measurement of the action potentials myocytes were placed in a laminin coated cell chamber and superfused with a bath solution. Only quiescent myocytes with sharp margins and clear striations were used for the electrophysiological study. Borosilicate glass micropipettes were filled with a pipette solution that was pH adjusted to 7.2. Perforated whole cell patch clamp was used to minimize alterations in the intracellular milieu. Action Potentials (APs) were recorded with the perforated whole cell patch techniques. Action potentials were recorded in isolated ventricular myocytes, which were characterized in the standard manner as the durations to 50% and 90% of repolarization. APs were measured as the average of the last 10 (steady-state) APs, obtained during a train of twenty five APs at each stimulation rate. An average of 2-3 myocytes was measured from each heart failure dog. Action Potentials were recorded in four groups. The following numbers of recordings were obtained and used in the analyzed data (number (n) indicates the number of myocytes): Control (CTRL, untreated, healthy dogs) (n=10) HF-placebo (placebo-treated dogs in heart failure (HF-PL)) (n=17) HF-C-Up bisoprolol, according to conservative up-titration bisoprolol treated dogs in heart failure (n=13) HF-A-Up bisoprolol, according to aggressive up-titration bisoprolol treated dogs in heart failure (n=15) Resting membrane potential was measured at 0.5 Hz and 1 Hz to bracket the physiologic range of resting heart rates (FIG. 1).

[3] = system: dogs with pacing-induced heart failure; assay type: in vivo
Procedure: A study was conducted with two groups of conscious dogs with pacing-induced heart failure to determine the tolerance and potential effects of different doses of bisoprolol fumarate. […] ECG (PQ, QRS, RR, QT, QTcF, and QTcV intervals), echocardiography (left ventricular shortening fraction (LVSF) and systemic arterial blood pressure (SBP, DBP, MAP and pulse pressure) were monitored in the two groups. Heart failure was produced by rapid ventricular pacing to reduce left ventricular shortening fraction (LVSF) greater than 15% from baseline.
In the first group, the conservative up-titration study, the dogs were treated with weekly increasing oral doses of 0.005, 0.01, 0.03, 0.05 and 0.1 mg/kg bisoprolol fumarate. In the second group, the aggressive up-titration study, the dogs were treated with weekly increasing doses of 0.01, 0.05, 0.1, 0.5 and 1 mg/kg bisoprolol fumarate on top of a dose of 0.5 mg/kg of enalapril, 4 mg/kg of furosemide, and 0.003 mg/kg of digoxin. These two groups were compared to a placebo group that was treated with the same doses of the standard heart failure therapy (enalapril, furosemide and digoxin) alone.

[4] = system: inward rectifier K+ current (IK1); experiment: Inward rectifier K+ current recordings in isolated ventricular myocytes of treated dogs; assay type: in vivo, dog
Description: as §1, with “The inward rectifier K+ current (IK1) is the primary determinant of the resting membrane potential (inward current) and modulates the final phase of repolarization (outward current). Reductions in inward current result in depolarization of the resting potential, while reductions in” for “The transient”, “outward current can contribute to action potential duration prolongation. IK1” for “outward K+ current, (Ito)”, “in each of the” for “in all”, “four groups,” for “four groups and”, “analyzed. The peak outward K+ current was recorded in each of the four groups (FIG. 5 bottom), data was recorded and analyzed.” for “analyzed.”

[5] = aggressive up-titration (HF-A-Up)
[6] = conservative up-titration (HF-C-Up)

With `CC(C)NCC(O)COc1ccc(COCCOC(C)C)cc1` (stereo not drawn) [bisoprolol fumarate] the “effects of heart failure on Ito” value ([1]; aggressive up-titration protocol (HF-A-Up Bis)) was “did not alter”, the “heart failure induced reductions in Ito” value ([1]; conservative up-titration protocol (HF-C-Up Bis), at the two highest test potentials (+40 and +50 mV)) was “significantly attenuated” and the “APD50 compared to normal control myocytes” value [2, 5] was “did not differ”. The “APD50 compared to the placebo-treated heart failure group” value [2, 5] was “statistically significant reduction”, the “APD90 compared to normal controls” value [2, 5] was “did not differ” and the “heart failure induced prolongation of the APD90” value [2, 5] was “significantly attenuated”. For the same compound, the “APD50 compared to normal control myocytes” value [2, 6] was “did not differ”, the “APD50 compared to the placebo-treated heart failure group” value [2, 6] was “statistically significant reduction” and the “APD90 compared to normal controls” value [2, 6] was “did not differ”. The “heart failure induced prolongation of the APD90” value [2, 6] was “significantly attenuated”, the “HF-induced changes in the action potential durations (particularly APD90 prolongation)” value ([2]; summary, both conservative and aggressive up-titration dosing regimens, physiologically relevant heart rates) was “significantly attenuated and even reversed to the physiological normal” and the tolerance ([3]; dog, in vivo, po) was “well tolerated”. For the same compound, the “cardioselective β-blockade effect (prolongation of PQ interval and reduction of heart rate)” value ([3]; doses used in both up-titration groups, dogs with heart failure) was “near to maximum cardioselective β-blockade effect”, the “inward IK1 current conductance, difference between the groups” value ([4]; all four groups) was “no difference” and the “peak outward IK1 current” value ([4]; conservative up-titration (HF-C-Up) relative to placebo (HF PL) and HF-A-Up) was “increased”.
